Key:
[1] = target: HpeH (Rhodococcus rhodochrous GD02); assay: mass photometry; Refeyn TwoMP; samples at 20 nM in the standard assay buffer (low ionic strength); acquisition 60 s
[2] = target: HpeH (Rhodococcus rhodochrous GD02); assay: SEC-MALS; Superdex 200; 50 µl of HpeH (12.5 µM), HpeI (25 µM) or both, incubated at room temperature for at least 20 min; 10 mM Hepes pH 7.5, 0.50 mM TCEP, 2.0 mM MgCl2, 0.25 mM MnCl2, with 20 mM or 200 mM NaCl; also with AMP-PNP
HpeHI [3] = test system: T1, HpeHI; assay: continuous spectrophotometric assay; assay type: biochemical, Rhodococcus rhodochrous; settings: apparent; 500 μM ATP, 2.0 mM MgCl2, 25 μM MnCl2, HEPES pH 7.5, I = 20 mM, 30 °C; 0.05 μM HpeH, 0.10 μM HpeI
T1 construct: gene hpeH; two components made separately in E. coli, N-terminal His tags cut with TEV; phenolic site in HpeH
Source text: continuous spectrophotometric assay on HpeHI

HpeHI [4] = test system: T1, HpeHI; assay: continuous spectrophotometric assay, low-concentration rates verified by LC-MS; assay type: biochemical, Rhodococcus rhodochrous; settings: apparent; 500 μM ATP, 2.0 mM MgCl2, 25 μM MnCl2, HEPES pH 7.5, I = 20 mM, 30 °C; 0.05 μM HpeH, 0.10 μM HpeI; upper bound
Source text: continuous spectrophotometric assay, low-concentration rates verified by LC-MS on HpeHI

Km (HpeHI [4]) [µM] | Molecule | Km (HpeHI [3]) [µM] | other results
– | HpeH (enzyme) | – | stoichiometry N [1]: 2; stoichiometry N [2]: 2
– | COc1cc(C=O)ccc1O [vanillin] | 10.3 | –
– | O=Cc1ccc(O)cc1 [4-hydroxybenzaldehyde] | 9.6 | –
< 0.3 | CC(=O)c1ccc(O)cc1 [4-hydroxyacetophenone] | – | –
< 0.3 | COc1cc(C(C)=O)ccc1O [acetovanillone] | – | –

Source: PMC12167813, “Characterization of a two-component kinase that initiates the bacterial catabolism of hydroxyphenylethanones” (The Journal of Biological Chemistry, 2025)
